Measurements reported in ChEMBL document CHEMBL3826929, “Discovery and Preclinical Evaluation of BMS-711939, an Oxybenzylglycine Based PPARα Selective Agonist” (ACS Med Chem Lett, 2016).
In brackets after ≈: the same amount, converted by molar mass.

Legend:
[1] = biological target: T1, Peroxisome proliferator-activated receptor alpha (Homo sapiens) (UniProt Q07869); assay: Intrinsic activity at PPAR-alpha (unknown origin) relative to fenofibric acid
T1 sequence (whole entry): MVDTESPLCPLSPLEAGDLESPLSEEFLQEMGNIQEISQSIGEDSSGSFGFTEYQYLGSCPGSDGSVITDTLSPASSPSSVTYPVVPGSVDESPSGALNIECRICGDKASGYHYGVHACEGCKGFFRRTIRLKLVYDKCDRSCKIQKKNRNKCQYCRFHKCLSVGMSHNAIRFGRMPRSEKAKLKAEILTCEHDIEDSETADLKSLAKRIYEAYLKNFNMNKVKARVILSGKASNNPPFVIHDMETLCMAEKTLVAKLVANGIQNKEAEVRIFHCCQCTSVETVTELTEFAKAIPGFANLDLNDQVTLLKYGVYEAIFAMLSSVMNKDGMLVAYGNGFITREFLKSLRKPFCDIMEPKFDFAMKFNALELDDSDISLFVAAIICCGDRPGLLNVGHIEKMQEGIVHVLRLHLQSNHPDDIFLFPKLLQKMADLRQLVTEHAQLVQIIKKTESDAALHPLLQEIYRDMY

[2] = Plasma clearance in cynomolgus monkey at 1 mg/kg, iv; format: ADME, organism-based, Macaca fascicularis
Mus musculus [3] = assay: Increase in HDL cholesterol level in transgenic mouse expressing human ApoA1 at 10 mg/kg administered qd through oral gavage measured after 10 days relative to vehicle control; format: functional
[4] = Protein binding in human plasma; format: ADME, cell-free; details: read-out: PPB (converted)
Syrian golden hamster [5] = assay: Decrease in liver triglyceride level in high fat-diet fed syrian golden hamster model of dyslipidemia at 3 mg/kg administered qd through oral gavage measured after 21 days by FPLC analysis relative to control; format: functional, Mesocricetus auratus; design: scale not given: the % may be the effect or the level left
Liver X receptor = Liver X receptor (Homo sapiens, UniProt Q13133+P55055); assay: Agonist activity at human LXR by transactivation assay; format: protein assay
[6] = Agonist activity at hamster PPAR-alpha; design: species or system Cricetinae
Syrian golden hamster [7] = assay: Decrease in plasma LDL cholesterol level in high fat-diet fed syrian golden hamster model of dyslipidemia at 1 mg/kg administered qd through oral gavage measured after 21 days by FPLC analysis relative to control; format: functional, Mesocricetus auratus; design: scale not given: the % may be the effect or the level left
[8] = Volume of distribution at steady state in Balb/c mouse at 5 mg/kg, iv; format: ADME, organism-based; details: in vivo, read-out: Vdss
[9] = Plasma clearance in Balb/c mouse at 5 mg/kg, iv; format: ADME, organism-based
[10] = Half life in Balb/c mouse at 5 mg/kg, iv; format: ADME, organism-based; details: in vivo
[11] = AUC (0 to 8 hrs) in Sprague-Dawley rat at 8 mg/kg, po; format: ADME, organism-based; design: time < 8 hr, dose 8 mg/kg, route oral; details: in vivo
CHO = assay: Clastogenecity in CHO cells; format: ADME, cell-based, Cricetulus griseus; details: chinese hamster
Mus musculus [12] = assay: Increase in HDL cholesterol level in transgenic mouse expressing human ApoA1 at 3 mg/kg administered qd through oral gavage measured after 10 days relative to vehicle control; format: functional
[13] = biological target: T2, Peroxisome proliferator-activated receptor gamma (Homo sapiens, UniProt P37231); assay: Agonist activity at full length human PPAR-gamma transfected in human HepG2 cells by luciferase reporter gene assay; format: cell-based
T2 sequence (P37231 whole entry): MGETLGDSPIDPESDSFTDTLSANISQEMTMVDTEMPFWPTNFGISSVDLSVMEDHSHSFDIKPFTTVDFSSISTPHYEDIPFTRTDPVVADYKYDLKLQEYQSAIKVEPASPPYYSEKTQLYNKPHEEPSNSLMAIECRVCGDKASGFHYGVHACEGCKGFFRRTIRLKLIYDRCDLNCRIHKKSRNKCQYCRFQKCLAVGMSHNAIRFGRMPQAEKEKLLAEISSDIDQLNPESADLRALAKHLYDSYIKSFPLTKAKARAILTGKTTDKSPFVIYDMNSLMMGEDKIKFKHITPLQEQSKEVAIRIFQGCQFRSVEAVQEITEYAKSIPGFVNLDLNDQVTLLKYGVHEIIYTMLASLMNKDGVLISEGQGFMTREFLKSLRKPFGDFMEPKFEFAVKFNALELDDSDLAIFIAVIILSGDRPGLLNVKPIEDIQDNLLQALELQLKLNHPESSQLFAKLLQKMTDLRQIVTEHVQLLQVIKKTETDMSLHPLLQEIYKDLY

Cytochrome P450 2C9 [14] = biological target: T3, Cytochrome P450 2C9 (Homo sapiens, UniProt P11712); assay: Inhibition of CYP2C9 (unknown origin); format: ADME
T3 sequence (P11712 whole entry): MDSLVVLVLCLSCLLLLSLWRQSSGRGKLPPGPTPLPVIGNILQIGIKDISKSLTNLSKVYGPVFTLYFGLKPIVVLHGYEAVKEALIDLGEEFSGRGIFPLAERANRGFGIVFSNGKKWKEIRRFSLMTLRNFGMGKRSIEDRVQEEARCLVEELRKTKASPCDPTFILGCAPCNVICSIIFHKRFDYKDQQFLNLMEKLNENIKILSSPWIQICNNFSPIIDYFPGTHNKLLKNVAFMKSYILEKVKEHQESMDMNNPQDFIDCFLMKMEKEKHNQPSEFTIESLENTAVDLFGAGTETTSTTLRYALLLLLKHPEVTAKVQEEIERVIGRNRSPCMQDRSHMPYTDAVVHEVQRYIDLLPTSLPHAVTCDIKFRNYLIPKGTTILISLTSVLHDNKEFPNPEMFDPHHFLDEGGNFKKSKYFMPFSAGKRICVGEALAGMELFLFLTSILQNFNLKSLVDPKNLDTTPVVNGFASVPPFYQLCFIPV

Mus musculus [15] = assay: Increase in serum ApoA1 level in transgenic mouse expressing human ApoA1 compound administered qd through oral gavage measured after 10 days; format: functional, organism-based
[16] = Volume of distribution at steady state in cynomolgus monkey at 1 mg/kg, iv; format: ADME, organism-based, Macaca fascicularis; details: in vivo, read-out: Vdss
[17] = Half life in Sprague-Dawley rat at 4 mg/kg, iv; format: ADME, organism-based; details: in vivo
[18] = biological target: T2, Peroxisome proliferator-activated receptor gamma; assay: Binding affinity to human GST-tagged PPAR-gamma LBD expressed in Escherichia coli BL21 after 30 mins in presence of fluorescein ligand FLA-A by fluorescence polarization assay
Mus musculus [19] = assay: Increase in ApoA1 level in transgenic mouse expressing human ApoA1 at 10 mg/kg administered qd through oral gavage measured after 10 days relative to vehicle-treated control; format: functional
Cytochrome P450 2C19 = Cytochrome P450 2C19 (Homo sapiens, UniProt P33261); assay: Inhibition of CYP2C19 (unknown origin); format: ADME
Sequence of Cytochrome P450 2C19 (P33261 whole entry): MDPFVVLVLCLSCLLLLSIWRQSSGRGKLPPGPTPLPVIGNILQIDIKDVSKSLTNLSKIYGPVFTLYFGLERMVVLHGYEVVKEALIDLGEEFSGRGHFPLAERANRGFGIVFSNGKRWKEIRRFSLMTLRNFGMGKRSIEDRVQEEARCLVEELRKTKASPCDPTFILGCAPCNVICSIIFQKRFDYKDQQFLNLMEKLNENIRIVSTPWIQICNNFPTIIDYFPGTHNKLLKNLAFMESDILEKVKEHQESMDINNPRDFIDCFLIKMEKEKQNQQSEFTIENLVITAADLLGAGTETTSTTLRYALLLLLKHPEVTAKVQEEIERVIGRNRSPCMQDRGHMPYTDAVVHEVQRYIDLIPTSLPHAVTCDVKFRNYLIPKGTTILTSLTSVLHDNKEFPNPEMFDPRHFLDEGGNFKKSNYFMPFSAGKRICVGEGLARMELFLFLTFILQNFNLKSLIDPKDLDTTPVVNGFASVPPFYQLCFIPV

[20] = Plasma clearance in Sprague-Dawley rat at 4 mg/kg, iv; format: ADME, organism-based
Homo sapiens = organism: Homo sapiens; assay: Inhibition of sodium channel (unknown origin) assessed as channel block at 10 uM and 4 Hz by electrophysiological method
Syrian golden hamster [21] = assay: Decrease in liver triglyceride level in high fat-diet fed syrian golden hamster model of dyslipidemia administered qd through oral gavage measured after 21 days by FPLC analysis; format: functional, organism-based; details: Mesocricetus auratus
Cytochrome P450 2C9 [22] = biological target: T3, Cytochrome P450 2C9; assay: Inhibition of CYP2C9 in human TC5 cells; format: ADME, cell-based
[23] = Aqueous solubility of the compound at pH 7.2; format: physicochemical; details: buffer
Mus musculus [24] = assay: Decrease in triglyceride level in transgenic mouse expressing human ApoA1 at 50 mg/kg administered qd through oral gavage measured after 10 days relative to vehicle control; format: functional; design: scale not given: the % may be the effect or the level left
Mus musculus [25] = assay: Increase in ApoA1 level in transgenic mouse expressing human ApoA1 at 3 mg/kg administered qd through oral gavage measured after 10 days relative to vehicle-treated control; format: functional
Syrian golden hamster [26] = assay: Decrease in plasma LDL cholesterol level in high fat-diet fed syrian golden hamster model of dyslipidemia administered qd through oral gavage measured after 21 days by FPLC analysis relative to control; format: functional, organism-based; details: Mesocricetus auratus
[27] = AUC (0 to 8 hrs) in Balb/c mouse at 5 mg/kg, iv; format: ADME, organism-based; design: dose 5 mg/kg, time < 8 hr, route intravenous; details: in vivo
[28] = Volume of distribution at steady state in Sprague-Dawley rat at 4 mg/kg, iv; format: ADME, organism-based; details: in vivo, read-out: Vdss
[29] = Tmax in dog at 2 mg/kg, po; format: ADME, organism-based, Canis lupus familiaris; details: in vivo
[30] = Cmax in cynomolgus monkey at 2 mg/kg, po; format: ADME, organism-based, Macaca fascicularis; design: dose 2 mg/kg, route oral; details: in vivo
Retinoid X receptor = Retinoid X receptor (Homo sapiens, UniProt P28702+P48443+P19793); assay: Agonist activity at human RXR by transactivation assay; format: protein assay
Cytochrome P450 2D6 = Cytochrome P450 2D6 (Homo sapiens, UniProt P10635); assay: Inhibition of CYP2D6 (unknown origin); format: ADME
Sequence of Cytochrome P450 2D6 (P10635 whole entry): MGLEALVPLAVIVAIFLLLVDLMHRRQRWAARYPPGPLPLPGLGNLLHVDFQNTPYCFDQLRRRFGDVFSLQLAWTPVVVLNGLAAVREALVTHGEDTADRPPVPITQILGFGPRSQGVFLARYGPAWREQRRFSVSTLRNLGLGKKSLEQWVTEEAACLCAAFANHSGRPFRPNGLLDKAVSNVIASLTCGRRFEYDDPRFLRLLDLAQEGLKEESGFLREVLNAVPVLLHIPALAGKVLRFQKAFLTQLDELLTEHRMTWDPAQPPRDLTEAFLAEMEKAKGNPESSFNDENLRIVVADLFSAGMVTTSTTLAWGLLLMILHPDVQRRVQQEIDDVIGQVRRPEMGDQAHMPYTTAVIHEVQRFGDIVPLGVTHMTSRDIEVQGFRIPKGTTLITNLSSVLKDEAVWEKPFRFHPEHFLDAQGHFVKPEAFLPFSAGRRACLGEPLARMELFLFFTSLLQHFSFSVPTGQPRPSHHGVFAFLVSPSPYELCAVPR

COC(=O)N(CC(=O)O)Cc1cc(OCc2nc(-c3ccc(Cl)cc3)oc2C)ccc1F
Intrinsic activity [1]: > 50% | clearance [2]: 5.9 mL/min/kg | Activity (Mus musculus [3]): 74% | fraction unbound [4]: 0.003 | Activity (Syrian golden hamster [5]): 39.8% | EC50 (Liver X receptor): > 25 µM | EC50 [6]: 0.178 µM | Activity (Syrian golden hamster [7]): 24% | Vd [8]: 0.6 L/kg | clearance [9]: 13.8 mL/min/kg | half-life [10]: 1.8 h | AUC(0-t) at 8 h [11]: 32 µM·h | Activity (CHO): Non-toxic | Activity (Mus musculus [12]): 16% | EC50 [13]: > 1.61 µM | IC50 (Cytochrome P450 2C9 [14]): > 40 µM | Activity (Mus musculus [15]): Dose-dependent effect | Vd [16]: 3.9 L/kg | half-life [17]: 3.3 h | IC50 [18]: > 98.4 µM | Activity (Mus musculus [19]): 400% | IC50 (Cytochrome P450 2C19): > 40 µM | clearance [20]: 15.3 mL/min/kg | inhibition (Homo sapiens): 14% | Activity (Syrian golden hamster [21]): Dose-dependent effect | IC50 (Cytochrome P450 2C9 [22]): > 150 µM | solubility [23]: 367 µg/mL (≈ 793 µM) | Activity (Mus musculus [24]): 58.1% | Activity (Mus musculus [25]): 96% | Activity (Syrian golden hamster [26]): Dose-dependent effect | AUC(0-t) at 8 h [27]: 13 µM·h | Vd [28]: 2.2 L/kg | Tmax [29]: 0.8 h | Cmax [30]: 1400 nM | EC50 (Retinoid X receptor): > 25 µM | IC50 (Cytochrome P450 2D6): > 40 µM
